From PubChem BioAssay (NCI)
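Growth conditions: 96-well plates. Treatment: test compound, 48 hours, 5 concentrations. Analysis: linear interpolation between bracketing concentrations; unreached endpoints set to highest concentration. At the GI50, growth is halved. Definition used: TGI = concentration required for complete inhibition of growth.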

Assays:
Test in all cases: NCI tumour cell line growth inhibition, 48 h
A498 renal = test system: A498 renal
DU-145 prostate = test system: DU-145 prostate
HCT-15 colon = test system: HCT-15 colon
HOP-62 NSCLC = test system: HOP-62 NSCLC
LOX IMVI melanoma = test system: LOX IMVI melanoma
OVCAR-4 ovarian = test system: OVCAR-4 ovarian
SK-MEL-2 melanoma = test system: SK-MEL-2 melanoma
SK-OV-3 ovarian = test system: SK-OV-3 ovarian
T-47D breast = test system: T-47D breast
UACC-257 melanoma = test system: UACC-257 melanoma

SMILES	GI50 (A498 renal)	TGI (A498 renal)	GI50 (DU-145 prostate)	TGI (DU-145 prostate)	GI50 (HCT-15 colon)	TGI (HCT-15 colon)	GI50 (HOP-62 NSCLC)	TGI (HOP-62 NSCLC)	GI50 (LOX IMVI melanoma)	TGI (LOX IMVI melanoma)	GI50 (OVCAR-4 ovarian)	TGI (OVCAR-4 ovarian)	GI50 (SK-MEL-2 melanoma)	TGI (SK-MEL-2 melanoma)	GI50 (SK-OV-3 ovarian)	TGI (SK-OV-3 ovarian)	GI50 (T-47D breast)	TGI (T-47D breast)	GI50 (UACC-257 melanoma)	TGI (UACC-257 melanoma)
CCCCCCCCCCCCNC(=O)[C@H]1CSC(c2ccc(OC)c(F)c2)N1 (some centres undefined)	1.78 µM	3.28 µM	0.888 µM	2.46 µM	1.78 µM	3.39 µM	0.273 µM	0.748 µM	0.19 µM	0.398 µM	0.699 µM	1.99 µM	1.77 µM	3.41 µM	1.96 µM	3.43 µM	1.75 µM	3.66 µM	1.62 µM	3.13 µM
CCCCCCCCCCCCCCCCCC1=NC(C)(C)CN1CCO	13.5 µM	32.1 µM	1.81 µM	3.27 µM	1.61 µM	3 µM	1.82 µM	3.54 µM	1.54 µM	2.87 µM	3.12 µM	9.8 µM	1.97 µM	3.63 µM	1.72 µM	3.16 µM	2.24 µM	5.61 µM	1.8 µM	3.57 µM
COc1cc(C(=O)N/N=C/c2cccc([N+](=O)[O-])c2)cc(OC)c1OC	1.79 µM	7.29 µM	7.1 µM	> 100 µM	6.78 µM	> 100 µM	18.4 µM	> 100 µM	4.69 µM	> 100 µM	43.4 µM	> 100 µM	4.16 µM	> 100 µM	31.9 µM	> 100 µM	35.6 µM	> 100 µM	5.11 µM	> 100 µM
O=C(CC(C(=O)O)N1CCOCC1)c1ccccc1 (centres undefined)	–	63 µM	–	69.4 µM	–	40.8 µM	–	86.9 µM	–	33.6 µM	–	43.2 µM	–	34.9 µM	–	> 100 µM	–	> 100 µM	–	27.2 µM
C[C@]12CC[C@@H]3c4ccc(O)cc4CC[C@H]3[C@@H]1CC[C@@H]2NS(=O)(=O)c1ccc(-c2ccccc2)cc1	1.96 µM	9.13 µM	6.54 µM	> 100 µM	3.04 µM	16.5 µM	10.5 µM	> 100 µM	10.6 µM	23.9 µM	2.43 µM	19 µM	3.78 µM	13.6 µM	6.79 µM	> 100 µM	3.47 µM	49 µM	4.26 µM	32.6 µM
CCN(CC)CCOc1ccc(C2=C(c3ccccc3)CCc3cc(OC)ccc32)cc1	4.23 µM	9.44 µM	6.69 µM	17.5 µM	1.16 µM	4.06 µM	3.08 µM	9.6 µM	1.75 µM	3.64 µM	3.54 µM	17.2 µM	2.15 µM	4.67 µM	3.22 µM	13.6 µM	0.811 µM	6.86 µM	1.81 µM	3.6 µM
CN(C)c1ccc(Sc2ccc3nc(N)nc(N)c3c2)cc1	3.34 µM	14 µM	0.793 µM	12.1 µM	0.429 µM	14.2 µM	0.884 µM	15.6 µM	0.3 µM	13.6 µM	1.76 µM	17.1 µM	3.84 µM	16.1 µM	2.71 µM	16.8 µM	1.66 µM	4.82 µM	1.09 µM	4.91 µM
N#CC1(C#N)C2C=CC(C3CCC=C32)C1(C#N)C#N (centres undefined)	–	> 10 µM	–	> 10 µM	–	> 10 µM	–	> 10 µM	–	> 10 µM	–	> 10 µM	–	> 10 µM	–	> 10 µM	–	> 8.87 µM	–	> 10 µM
Nc1ncnc2c1ncn2Cc1ccc(C23CC4CC(CC(C4)C2)C3)c(O)c1	15.8 µM	49.8 µM	27.3 µM	> 100 µM	58.6 µM	> 100 µM	9.06 µM	34.6 µM	24.6 µM	> 100 µM	2.71 µM	8.66 µM	> 100 µM	> 100 µM	36.3 µM	> 100 µM	58.7 µM	> 100 µM	3.39 µM	61.2 µM
COc1cc2c(cc1OC)[C@H]1C(=O)c3cc4c(cc3[C@H]1N(C)C2=O)OCO4	–	> 79.5 µM	–	> 100 µM	–	> 100 µM	–	> 79.2 µM	–	> 40.8 µM	–	> 100 µM	–	> 100 µM	–	> 100 µM	–	> 100 µM	–	> 100 µM
O=C(CN=Cc1cccs1)CSC(c1ccccc1)c1ccccc1	16.6 µM	45.8 µM	34 µM	> 100 µM	17.7 µM	57.3 µM	34 µM	> 100 µM	25.8 µM	82.2 µM	26.5 µM	> 100 µM	19 µM	34.8 µM	16.3 µM	58.2 µM	20.1 µM	84.3 µM	22.1 µM	48 µM
CC(=O)C1=C(O)/C(=C\c2ccco2)OC1=O	–	> 10 µM	–	> 10 µM	–	> 10 µM	–	> 10 µM	–	> 10 µM	–	> 10 µM	–	> 10 µM	–	> 10 µM	–	> 10 µM	–	> 10 µM
CC(C)n1nc(C#Cc2cccc(NC(=O)c3cccc(C(F)(F)F)c3)c2)c2c(N)ncnc21	1.07 µM	2.51 µM	2.78 µM	12.3 µM	2.41 µM	> 100 µM	1.11 µM	6.71 µM	0.204 µM	1.04 µM	3.54 µM	34.4 µM	0.308 µM	1.96 µM	1.98 µM	4.55 µM	3.22 µM	17.5 µM	0.538 µM	5.68 µM
O=[N+]([O-])O.[NH-]C1CCCCC1[NH-].[NH-]C1CCCCC1[NH-].[NH-]C1CCCCC1[NH-].[OH-].[OH-].[OH-].[Pt+4].[Pt+4].[Pt+4] (centres undefined)	0.278 µM	35.1 µM	1.35 µM	50 µM	0.223 µM	> 43.5 µM	2.23 µM	> 57.8 µM	0.467 µM	> 85.7 µM	–	> 100 µM	2.05 µM	30.5 µM	19.6 µM	> 100 µM	1.08 µM	> 83.9 µM	1.27 µM	20.4 µM
